From patent US20090181098A1, “Hmg-Co-a Reductase Inhibitor Enhancement of Bone and Cartilage” (OsteoScreen IP, LLC, priority 2006, published 2009)

How the values were obtained:
[1] = Serum liver and muscle enzymes (ALT, AST, AP, LDH, CPK) and myotoxicity after dermal lovastatin; settings: for ALT / AP / AST / CPK / LDH: end of 5 day treatment
Experimental: (§1) Blood samples were obtained at the end of the five day treatment for determination of liver and muscle enzymes (alanine aminotransferase (ALT), aspartate aminotransferase (AST), alkaline phosphatase (AP), and lactic dehydrogenase (LDH) by radioimmunoassays (Esoterix, San Antonio, Tex.). Kinetic quantitative determination of […] (CPK) in serum was estimated using a kit from Stanbio Laboratory (Boerne, Tex.). The concentration of osteocalcin was measured using a sandwich ELISA assay supplied by from Biomedical Technologies Inc.
Three-month old virgin female Sprague Dawley rats were purchased from Harlan Laboratories, LTD (Indianapolis, Ind.). Experiments were performed using either intact, bilaterally ovariectomized (OVX) or sham-operated (SHAM) rats with treatment starting 5 days after surgery in the latter groups. Rats were weight-matched and divided into treatment groups (n=10). Compounds were administered by daily transdermal application for 5 days only or 5 days/week for 5 weeks when specified. Animals were pair-fed throughout the experimental period and weekly body weights determined and dosage adjusted accordingly. At the completion of the experiment, animals were anesthetized with a ketamine (10 mg/ml) at a dose of 100 mg/kg body weight and euthanized by cervical dislocation.

[2] = tested on: ovariectomized (OVX) rats; assay: Effects of transdermal lovastatin on bone in ovariectomized rats (histomorphometry); assay type: in vivo, rat
Experimental: Following sacrifice, both femurs and tibiae were removed, cleaned of soft tissue, fixed in 10% formalin for 48 hours, and then stored in 70% ETOH and prepared for histology. Histomorphometric analysis was performed using a semiautomated Osteomeasure System (Osteometrics, Inc., Atlanta, Ga.) and digitizing pad and by following standard histomorphometric techniques. Bone volume, trabecular number, thickness and separation, cell number and dynamic parameters were determined as described previously by Parfitt et al. [Parfitt A M (1988) Bone histomorphometry: standardization of nomenclature, symbols and units. Summary of proposed system. J Bone Miner Res 4:1-5.]. Bone formation rates (BFR) and mineral apposition rates (MAR) were measured in plastic-embedded sections following demeclocycline and calcein injections (15 and 20 mg/kg/body weight respectively) given intraperitoneally at 10 and 4 days before sacrifice. Values for MAR were corrected for obliquity of the plane of section in cancellous bone. Rats were evaluated with a mouse densitometer, Piximus (GE Medical Systems); bone mineral density (BMD), calculated by dividing bone mineral content (g) by the projected bone area (cm^2), was assessed for the proximal third of the tibia at time 0 and at 5 weeks. Micro-computed tomography (μ-CT) analysis of the rat distal femur was kindly performed by Phil Salmon (Skyscan, Belgium). Bones were scanned using the Skyscan Model 1072 employing an x-ray tube voltage of 100 kV, and magnified to attain a pixel size of 10.13 μm. Data are expressed as the mean standard error (SEM). Statistical differences between groups were evaluated with one-way analysis of variance (ANOVA). […] P<0.05 were considered significant.

osteocalcin = assay: Serum osteocalcin (sandwich ELISA) in OVX rats; assay type: in vivo, rat; settings: dermal gel 0.01 mg/kg/day for 5 days, day 26
Experimental: as §1

femur fracture model [3] = assay: Femur fracture model, systemically delivered lovastatin (radiographs, biomechanics); assay type: in vivo, rat
femur fracture model [4] = tested on: femur fracture model
Text: In accordance with the study, the clinical focus involves creating uniform and reproducible fracture defects utilizing a pinned closed transverse rat femoral model chosen because it has been well defined and fully characterized by mechanical and histologic methods. Advantages of this model include reproducibility, defect uniformity, and a rapid 5 weeks to clinical union healing phase. The properties of the bioactive coating are investigated in preliminary studies in vitro and in vivo using the explanted calvarial culture and the local calvarial injection model including drug-release kinetics, degradation and stability. The aims of the study are: (1) to evaluate the effect of controlled-released locally administered lovastatin on callus formation, progression and fracture healing using X-ray analysis of fracture healing. At the end of the experiment, the fractured limb will be excised and X-rayed after removal of stabilizing pins. These X-rays will be assessed for evidence of healing of the fracture. They will be scored by 3 independent observers for healing of the fracture; (2) to evaluate the effect of controlled released lovastatin on biomechanical parameters by three-point bending and micro computer tomography (uCT); and (3) to evaluate by uCT bone microarchitecture at callus site and bone healing. […]

[5] = Plasma lovastatin by mass spectroscopy after local nanobeads; assay type: in vivo, rat; settings: any of the dosed groups, end of the experiment
Experimental: Plasma was taken from the rats 3 hrs after the last dose and the lovastatin was measured by mass spectroscopy.

[6] = dermal, hydrophilic petrolatum, 1 mg/kg/day
[7] = dermal, hydrophilic petrolatum, 5 mg/kg/day
[8] = aqueous alkanolic gel, lowest dose tested

## CC[C@H](C)C(=O)O[C@H]1C[C@@H](C)C=C2C=C[C@H](C)[C@H](CC[C@@H]3C[C@@H](O)CC(=O)O3)[C@H]21 [lovastatin]
[1]; dermal, aqueous alkanolic gel, 0.01 to 0.5 mg/kg/day, end of treatment, sham/ovx rats
  Change in liver and muscle skeletal tissue enzymes (AST, ALT, AP, LDH, CPK): No significant changes
[1]; [6]
  ALT: 55 ± 3 μ/L
  AP: 123 ± 6 μ/L
  AST: 110 ± 4 μ/L
  CPK: 441 ± 61 μ/L
  LDH: 349 ± 47 μ/L
[1]; [7]
  ALT: 57 ± 2 μ/L
  AP: 115 ± 5 μ/L
  AST: 128 ± 7 μ/L
  CPK: 578 ± 45 μ/L
  LDH: 528 ± 67 μ/L
[1]; dermal, hydrophilic petrolatum, 1 and 5 mg/kg/day, 5 days
  Change in liver and muscle enzymes (ALT, AST, AP, LDH, CPK) vs vehicle: No changes
[1]; hydroalcoholic gel, 5 days, sham and ovx rats
  Serum creatine protein kinase (CPK), treated groups vs control: No significant changes
[1]; transdermal
  Non-myotoxic dose (50 mg/kg/day) relative to effective dose (0.01 mg/kg): 5000 fold
[1]; transdermal, doses up to 50 mg/kg/day
  Myotoxicity by CPK measurements and morphologic examination of skeletal muscles: not observed
[2]; 0.01 mg/kg transdermal vs oral dose of Mundy et al. 1999
  Effective transdermal dose as fraction of the dose required orally for an effect on bone formation: approximately 1/1000
[2]; 5 days of transdermal exposure, 0.01 mg/kg body weight
  Bone formation rates: markedly increased
[2]; [8]
  Trabecular number: significant increase in trabecular number
  Trabecular separation: significant decrease in trabecular separation
[2]; dermal 1 mg/kg/day, 5 days (FIG. 4)
  Increase in bone volume vs OVX rats treated with vehicle: 50%
[2]; dermal, 5 day administration (FIG. 6)
  Bone formation rates (BFR): significant increase
[2]; dermal, 5 days (FIG. 5)
  OVX-induced changes in trabecular thickness, number and separation: partly prevented these changes
[2]; dermal, aqueous alkanolic gel, 0.01 to 0.5 mg/kg/day for 5 days, significant at 0.01 mg/kg/day
  Bone volume by histomorphometry: increased bone volume at all the doses tested
[2]; dermal, hydroalcoholic gel, 0.01 to 0.5 mg/kg/day for 5 days, proximal tibiae, four weeks after dosing
  Increase in bone volume vs vehicle-treated OVX rats: > 40%
[2]; dermal, hydrophilic petrolatum, 5 days, even at the lowest dose (FIG. 3b)
  Increase in bone volume vs vehicle-treated OVX rats: > 50%
[2]; transdermal
  Cancellous bone connectivity (trabecular thickness, number, separation, star volume, fractal dimension, pattern factor): increased cancellous bone connectivity
osteocalcin
  Serum osteocalcin levels: significant increase in osteocalcin levels
Femur fracture model [3]; Experiment 1, 5 day transdermal dose of 2.5 mg/kg, 6 weeks
  Maximum force to break the bones, 2.5 mg/kg vs 1 mg/kg/day: lower maximum force than the 1 mg/kg/day dose
Femur fracture model [3]; Experiment 1, oral 10 and 25 mg/kg, six weeks
  Radiological evaluation of fracture repair: no difference between the treated and the controls
Femur fracture model [3]; Experiment 1, oral 10 and 25 mg/kg/day
  Radiographic score at 2 weeks: no difference from vehicle-treated controls
Femur fracture model [3]; Experiment 1, oral 10 and 25 mg/kg/day, 6 weeks
  Force required to break the bone: no effect
Femur fracture model [3]; Experiment 1, transdermal 1 and 2.5 mg/kg/day
  Radiographic score at 2 weeks: striking effect at both doses
Femur fracture model [3]; Experiment 1, transdermal, 6 weeks
  Force required to break the bone, greater than vehicle treated controls: 42%
Femur fracture model [3]; Experiment 1, transdermal, week 6
  Radiological evaluation of fracture repair: complete healing by week 6
Femur fracture model [3]; Experiment 2, TD 0.1 mg/kg/day, 6 weeks
  Force required to break the bone, greater than vehicle-treated controls: 42%
Femur fracture model [3]; Experiment 2, TD doses higher than 0.1 mg/kg/day
  Maximum force to rebreak the bones: reduced maximum force
Femur fracture model [3]; Experiment 2, oral 5 mg/kg/day, 6 weeks
  Force required to break the bone: no effect
Femur fracture model [3]; Experiment 2, oral 5 mg/kg/day, 6 weeks after fracture
  Stiffness: no effect
Femur fracture model [3]; for 5 days
  Most effective transdermal dose: 0.1 mg/kg/day
Femur fracture model [3]; previous experiment (Experiment 1), oral, higher doses
  Stiffness: increase in stiffness
Femur fracture model [3]; transdermal
  Fracture healing (radiographic examination and biomechanical loading): accelerates fracture healing
Femur fracture model [3]; transdermal, even at 0.1 mg/kg/day for 5 days only
  Strength and stiffness of fractured bones: increase in both strength and stiffness
Femur fracture model [4]; released from nanobeads at fracture site
  Lowest lovastatin amount tested giving a significant increase in radiographic score: 0.2 µg/day
Femur fracture model [4]; single injection of nanobeads at fracture site, 2 weeks
  Lovastatin release giving maximum radiographic score: 1.5 µg/day
[5]
  Plasma lovastatin: undetectable
